Measured values reported in BigSolDB 2.1.

CCS(=O)(=O)CCn1c([N+](=O)[O-])cnc1C
solubility (mole fraction)
Settings | 278.15 K | 283.15 K | 288.15 K | 293.15 K | 298.15 K | 303.15 K | 308.15 K | 313.15 K | 318.15 K | 323.15 K
in 2-butoxyethanol | 0.00191 | 0.00214 | 0.00276 | 0.00372 | 0.00446 | 0.0054 | 0.00687 | 0.00826 | 0.0106 | 0.0133
in 2-ethoxyethanol | 0.00356 | 0.00437 | 0.00526 | 0.00647 | 0.00792 | 0.00957 | 0.012 | 0.0147 | 0.0181 | 0.0222
in 2-methoxyethanol | 0.00839 | 0.0102 | 0.0118 | 0.0145 | 0.0175 | 0.0209 | 0.0257 | 0.0314 | 0.0377 | 0.0462
in 2-propoxyethanol | 0.0022 | 0.00261 | 0.00329 | 0.00429 | 0.00513 | 0.00622 | 0.00778 | 0.00967 | 0.0123 | 0.0154
in DMAc | 0.0509 | 0.0571 | 0.0655 | 0.0745 | 0.083 | 0.0944 | 0.107 | 0.121 | 0.136 | 0.154
in DMF | 0.0454 | 0.0521 | 0.06 | 0.0691 | 0.0787 | 0.0905 | 0.104 | 0.119 | 0.134 | 0.152
in NMP | 0.0704 | 0.0804 | 0.089 | 0.0987 | 0.109 | 0.122 | 0.137 | 0.15 | 0.167 | 0.183
in acetone | 0.00866 | 0.011 | 0.0133 | 0.0161 | 0.0195 | 0.0233 | 0.028 | 0.0348 | 0.0426 | 0.0517
in ethanol | 0.000263 | 0.000375 | 0.000479 | 0.000665 | 0.000836 | 0.0012 | 0.0016 | 0.00207 | 0.00277 | 0.00377
in ethyl acetate | 0.00334 | 0.00412 | 0.00488 | 0.0057 | 0.00689 | 0.00825 | 0.0099 | 0.0118 | 0.0141 | 0.0168
in methanol | 0.000928 | 0.00119 | 0.00157 | 0.00197 | 0.00263 | 0.00345 | 0.00448 | 0.00597 | 0.00785 | 0.0104
in methyl acetate | 0.00557 | 0.00673 | 0.00791 | 0.0095 | 0.0114 | 0.0134 | 0.0159 | 0.0188 | 0.0223 | 0.0257
in n-butyl acetate | 0.00199 | 0.00235 | 0.0029 | 0.00358 | 0.00421 | 0.00513 | 0.00617 | 0.0074 | 0.00898 | 0.0107
in n-propyl acetate | 0.00255 | 0.00314 | 0.00377 | 0.00456 | 0.00543 | 0.00659 | 0.00783 | 0.00948 | 0.0114 | 0.0135
